# Earlier results as cited in patent US9738710B2, “Method of treating a patient for pain by administering an anti-ion channel antibody” (UCB Biopharma SPRL, priority 2009, dated 2017).
# Like-named read-outs stand apart in the source and are kept apart here.
# How the values were obtained:
# hNav1.5 [1] = target: T1, hNav1.5 (Homo sapiens, UniProt Q14524); details: read-out: FRET-based Assay hNav1.5
# hNav1.7 [2] = target: T2, hNav1.7 (Homo sapiens, UniProt Q15858); details: read-out: FRET-based Assay hNav1.7
# T2 sequence (Q15858 whole entry): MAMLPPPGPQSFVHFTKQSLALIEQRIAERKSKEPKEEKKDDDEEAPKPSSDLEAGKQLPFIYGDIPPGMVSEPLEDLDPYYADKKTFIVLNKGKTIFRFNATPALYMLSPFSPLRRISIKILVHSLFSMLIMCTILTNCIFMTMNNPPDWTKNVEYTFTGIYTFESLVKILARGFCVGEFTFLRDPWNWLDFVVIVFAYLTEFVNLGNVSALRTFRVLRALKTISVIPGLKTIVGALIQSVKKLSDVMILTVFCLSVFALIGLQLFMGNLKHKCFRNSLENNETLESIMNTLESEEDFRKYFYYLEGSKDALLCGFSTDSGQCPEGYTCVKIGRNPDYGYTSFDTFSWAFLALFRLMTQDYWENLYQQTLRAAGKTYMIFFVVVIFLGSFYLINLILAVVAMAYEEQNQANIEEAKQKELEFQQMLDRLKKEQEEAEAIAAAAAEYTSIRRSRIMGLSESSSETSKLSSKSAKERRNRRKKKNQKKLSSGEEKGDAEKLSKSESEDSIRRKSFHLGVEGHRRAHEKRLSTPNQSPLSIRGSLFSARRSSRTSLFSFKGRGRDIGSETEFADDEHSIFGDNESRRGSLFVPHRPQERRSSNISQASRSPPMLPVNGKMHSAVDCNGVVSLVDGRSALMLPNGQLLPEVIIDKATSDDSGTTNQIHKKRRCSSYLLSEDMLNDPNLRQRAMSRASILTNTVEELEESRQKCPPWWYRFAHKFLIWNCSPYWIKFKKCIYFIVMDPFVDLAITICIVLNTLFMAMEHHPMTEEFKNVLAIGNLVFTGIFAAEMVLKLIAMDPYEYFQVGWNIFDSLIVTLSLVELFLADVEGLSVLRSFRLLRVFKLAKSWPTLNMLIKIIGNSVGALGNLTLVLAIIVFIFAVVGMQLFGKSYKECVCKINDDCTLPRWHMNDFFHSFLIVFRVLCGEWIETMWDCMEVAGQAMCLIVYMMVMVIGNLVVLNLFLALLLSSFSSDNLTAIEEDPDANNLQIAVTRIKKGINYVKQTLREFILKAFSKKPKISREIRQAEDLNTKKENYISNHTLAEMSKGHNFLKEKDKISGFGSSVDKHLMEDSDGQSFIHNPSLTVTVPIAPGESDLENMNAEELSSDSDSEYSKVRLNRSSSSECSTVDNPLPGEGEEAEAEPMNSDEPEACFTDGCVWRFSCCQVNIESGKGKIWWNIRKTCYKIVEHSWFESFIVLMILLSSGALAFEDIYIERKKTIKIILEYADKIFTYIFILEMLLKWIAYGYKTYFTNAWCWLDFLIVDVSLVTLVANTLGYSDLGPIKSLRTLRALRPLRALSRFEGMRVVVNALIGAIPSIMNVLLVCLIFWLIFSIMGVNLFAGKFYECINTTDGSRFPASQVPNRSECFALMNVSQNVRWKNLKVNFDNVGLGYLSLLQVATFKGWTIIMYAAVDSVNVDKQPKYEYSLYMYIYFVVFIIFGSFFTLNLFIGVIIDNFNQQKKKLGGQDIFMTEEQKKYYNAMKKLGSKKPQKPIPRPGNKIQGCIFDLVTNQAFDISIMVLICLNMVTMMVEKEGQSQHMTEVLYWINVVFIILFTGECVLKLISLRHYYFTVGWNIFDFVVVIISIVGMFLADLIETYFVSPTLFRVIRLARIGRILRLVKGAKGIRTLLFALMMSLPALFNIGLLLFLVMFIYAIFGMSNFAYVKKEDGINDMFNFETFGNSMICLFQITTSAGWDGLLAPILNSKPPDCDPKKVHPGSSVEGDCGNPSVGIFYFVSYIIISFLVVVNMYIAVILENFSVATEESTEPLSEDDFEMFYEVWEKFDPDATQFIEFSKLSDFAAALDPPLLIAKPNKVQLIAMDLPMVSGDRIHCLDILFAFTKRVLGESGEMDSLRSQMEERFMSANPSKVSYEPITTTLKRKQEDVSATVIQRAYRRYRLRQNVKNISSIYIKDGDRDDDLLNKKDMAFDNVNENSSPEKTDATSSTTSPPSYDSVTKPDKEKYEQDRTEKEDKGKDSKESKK
# hNav1.8 = hNav1.8 (Homo sapiens, UniProt Q9Y5Y9); details: read-out: FRET-based Assay hNav1.8
# hNav1.5 [3] = target: T1, hNav1.5; details: read-out: Electrophysiology hNav1.5
# hNav1.7 [4] = target: T2, hNav1.7; details: read-out: Electrophysiology hNav1.7
# [5] = neuropathic pain patients (Dworkin, 2002)
# T1 sequence (Q14524 whole entry): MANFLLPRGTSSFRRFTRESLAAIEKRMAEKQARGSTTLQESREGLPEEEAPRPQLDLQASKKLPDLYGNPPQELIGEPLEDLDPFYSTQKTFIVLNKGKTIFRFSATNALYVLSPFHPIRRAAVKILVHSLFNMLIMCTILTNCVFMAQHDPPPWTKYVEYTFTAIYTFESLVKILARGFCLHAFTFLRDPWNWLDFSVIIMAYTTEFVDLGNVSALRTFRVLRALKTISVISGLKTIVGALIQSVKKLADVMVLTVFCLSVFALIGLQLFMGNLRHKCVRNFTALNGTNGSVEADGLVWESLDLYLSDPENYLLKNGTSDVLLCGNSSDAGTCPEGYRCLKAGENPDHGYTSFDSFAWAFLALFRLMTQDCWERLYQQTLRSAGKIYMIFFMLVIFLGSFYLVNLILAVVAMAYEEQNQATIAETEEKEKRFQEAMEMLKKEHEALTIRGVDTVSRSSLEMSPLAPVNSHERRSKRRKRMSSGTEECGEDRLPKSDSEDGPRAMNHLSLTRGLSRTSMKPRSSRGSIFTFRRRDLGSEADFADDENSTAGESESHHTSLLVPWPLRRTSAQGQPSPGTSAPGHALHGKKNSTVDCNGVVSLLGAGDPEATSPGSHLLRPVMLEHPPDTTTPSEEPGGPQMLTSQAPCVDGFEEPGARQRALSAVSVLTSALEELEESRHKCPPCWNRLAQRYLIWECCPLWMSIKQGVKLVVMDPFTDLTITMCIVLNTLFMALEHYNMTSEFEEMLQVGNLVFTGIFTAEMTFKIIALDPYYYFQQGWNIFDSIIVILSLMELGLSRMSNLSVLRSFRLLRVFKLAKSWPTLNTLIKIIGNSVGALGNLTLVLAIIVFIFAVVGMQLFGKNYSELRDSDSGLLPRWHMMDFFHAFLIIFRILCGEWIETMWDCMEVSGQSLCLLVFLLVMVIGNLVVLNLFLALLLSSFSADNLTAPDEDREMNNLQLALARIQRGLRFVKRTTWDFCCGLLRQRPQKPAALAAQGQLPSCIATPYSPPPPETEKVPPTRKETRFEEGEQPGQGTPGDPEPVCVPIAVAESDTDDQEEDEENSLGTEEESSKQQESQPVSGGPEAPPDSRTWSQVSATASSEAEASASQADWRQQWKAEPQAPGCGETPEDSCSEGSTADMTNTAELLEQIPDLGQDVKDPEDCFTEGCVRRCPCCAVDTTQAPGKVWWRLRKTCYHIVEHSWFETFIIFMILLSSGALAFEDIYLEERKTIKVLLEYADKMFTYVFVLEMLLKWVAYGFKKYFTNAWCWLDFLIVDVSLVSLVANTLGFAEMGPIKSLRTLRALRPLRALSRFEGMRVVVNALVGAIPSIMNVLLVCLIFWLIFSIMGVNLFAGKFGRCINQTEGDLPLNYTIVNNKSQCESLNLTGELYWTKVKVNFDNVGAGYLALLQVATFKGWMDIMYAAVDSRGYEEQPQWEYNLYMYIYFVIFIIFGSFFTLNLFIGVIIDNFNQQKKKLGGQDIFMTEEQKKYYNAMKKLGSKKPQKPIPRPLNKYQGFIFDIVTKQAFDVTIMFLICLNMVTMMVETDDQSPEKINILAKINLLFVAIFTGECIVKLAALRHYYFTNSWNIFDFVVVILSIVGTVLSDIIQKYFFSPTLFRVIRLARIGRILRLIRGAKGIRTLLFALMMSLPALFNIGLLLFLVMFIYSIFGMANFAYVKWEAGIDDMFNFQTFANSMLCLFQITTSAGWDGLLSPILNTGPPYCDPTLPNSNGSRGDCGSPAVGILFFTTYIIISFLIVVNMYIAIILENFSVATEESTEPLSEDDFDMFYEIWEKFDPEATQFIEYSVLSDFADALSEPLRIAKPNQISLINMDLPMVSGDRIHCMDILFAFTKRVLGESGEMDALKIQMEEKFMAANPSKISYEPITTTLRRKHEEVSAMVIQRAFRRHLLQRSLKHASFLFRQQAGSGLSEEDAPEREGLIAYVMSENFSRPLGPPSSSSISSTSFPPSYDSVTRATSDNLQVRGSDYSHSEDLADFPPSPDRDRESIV
Structure (SMILES),IC50 (hNav1.5 [1]) [µM],IC50 (hNav1.7 [2]) [µM],IC50 (hNav1.8) [µM],IC50 (hNav1.5 [3]) [µM],IC50 (hNav1.7 [4]) [µM],reduction of pain [5] [%],share of patients with that pain reduction [5]
"CC(C)N1C(=O)C(NC(=O)C(Cc2ccccc2F)NC(=O)c2ccc(F)cc2C(F)(F)F)CCc2cc(Cl)ccc21 [N—[(R)-1-(R)-7-chloro-1-isopropyl-2-oxo-2,3,4,5-tetrahydro-1H-benzo[b]azepine-3-ylcarbamoyl)-2-(2-fluorophenyl)-ethyl]-4-fluoro-2-trifluoromethyl-benzamide]",0.18,0.03,0.3,4.3,0.55,–,–
NCC1(CC(=O)O)CCCCC1 [gabapentin],–,–,–,–,–,≤ 50,about 40%
